Measured values taken from PubChem BioAssay (NCI).
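Cells were grown in 96-well plates and exposed to each compound for 48 hours at five concentrations; endpoints were interpolated linearly between bracketing concentrations, or set to the highest concentration if not reached. TGI denotes the concentration required for complete inhibition of growth.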

What was measured:
Experiment in all cases: inhibition of tumour cell growth, NCI panel, 48 h
NCI-H23 lung = test system: NCI-H23 lung
HL-60(TB) leukemia = test system: HL-60(TB) leukemia
UACC-257 melanoma = test system: UACC-257 melanoma
CAKI-1 renal = test system: CAKI-1 renal
IGROV1 ovarian = test system: IGROV1 ovarian
SK-OV-3 ovarian = test system: SK-OV-3 ovarian
SK-MEL-5 melanoma = test system: SK-MEL-5 melanoma
K-562 leukemia = test system: K-562 leukemia
SF-539 CNS = test system: SF-539 CNS
SNB-75 CNS = test system: SNB-75 CNS
MCF7 breast = test system: MCF7 breast
T-47D breast = test system: T-47D breast
MALME-3M melanoma = test system: MALME-3M melanoma
HCT-116 colon = test system: HCT-116 colon
KM12 colon = test system: KM12 colon
MDA-MB-435 = test system: MDA-MB-435
A498 renal = test system: A498 renal
UO-31 renal = test system: UO-31 renal

SMILES	TGI (NCI-H23 lung) [µM]	TGI (HL-60(TB) leukemia) [µM]	TGI (UACC-257 melanoma) [µM]	TGI (CAKI-1 renal) [µM]	TGI (IGROV1 ovarian) [µM]	TGI (SK-OV-3 ovarian) [µM]	TGI (SK-MEL-5 melanoma) [µM]	TGI (K-562 leukemia) [µM]	TGI (SF-539 CNS) [µM]	TGI (SNB-75 CNS) [µM]	TGI (MCF7 breast) [µM]	TGI (T-47D breast) [µM]	TGI (MALME-3M melanoma) [µM]	TGI (HCT-116 colon) [µM]	TGI (KM12 colon) [µM]	TGI (MDA-MB-435) [µM]	TGI (A498 renal) [µM]	TGI (UO-31 renal) [µM]
CCOC(=O)c1c(-c2ccc(Br)cc2)ccn1C	> 10	> 10	> 10	> 10	> 10	> 10	> 10	> 10	> 10	> 10	> 10	> 10	> 10	> 10	> 10	> 10	> 10	
CC(C)(C)OC(=O)C1=C2C=C(O)C=CC2(C)N(Cc2ccccc2)C1=N (stereo unspecified)	31.2	6.35	18.7	4.19	16.6	42.1	15.9	> 32.9	12.7	> 56.7	9.99	10.2	10.9	9.83	23.1	21.5	26.2	10.7
O=C(N/N=C/c1ccccc1O)c1ccccc1Nc1ccccc1C(=O)N/N=C/c1ccccc1O	> 100	> 100	> 100	> 100	> 100	> 100	8.15	> 100	> 100	> 100	> 100	> 100	6.09	3.5	> 100	> 30.7	> 100	> 100
O=c1c(NO)c([N+](=O)[O-])cnn1-c1ccccc1	13.2	3.14	13.4	11.2	41.1	13.3	12.4	1.86	28.9	28.4	16.5	3.79	12	6.25	23.5	3.34	50	12.9
O=C1NC(N2CCCCC2)=N/C1=C\c1ccccc1O	> 100	> 100	> 100	> 100	> 100	> 100	> 100	> 100	> 100	> 100	> 100	> 100	> 100	> 100	> 100	> 100	> 100	> 100
Cc1nn2c(C(=O)N/N=C/c3ccc([N+](=O)[O-])cc3)c(C)nc2s1	> 100	> 100	> 100	> 100	> 100	87	> 100	> 100	> 100	> 100	> 100	> 100	> 100	> 100	> 100	> 100	> 100	> 100
COC1=CC(=O)c2c(c(COP(=O)(N(C)CCBr)N(C)CCBr)cn2C)C1=O	2.06	> 100	1.2	0.377	3.93	1.88	0.328		0.0678	0.442	0.671	19	0.291		1.07	0.222	0.964	0.294
Oc1ccccc1C1=NOC(c2ccc(C(F)(F)F)cc2)C1 (stereo unspecified)	> 50	> 50	> 50	> 50	> 33.3	> 50	> 50	> 50	> 50	> 50	> 50	> 38.1	> 50	> 50	> 50	> 50	> 50	> 50
COC(=O)C1=C(C(=O)OC)SC(=C2S[C@@H]3[C@@H]4C[C@H]([C@@H]3S2)[C@H]2C(=O)OC(=O)[C@@H]42)S1	> 100	> 100	> 100	> 100	> 100		> 100	> 100	> 100		> 100	> 100	> 100	> 100	> 100	> 100	> 100	> 100
CN(C)S(=O)(=O)n1cnc(CO)c1	> 100		> 100	> 100	> 100	> 100	> 100	> 100	> 100	> 100	> 100	> 100	> 100	> 100	> 100	> 100	> 100	> 100
NC(Cc1ccc(S(=O)(=O)O)cc1)C(=O)NC(Cc1ccc(S(=O)(=O)O)cc1)C(=O)NC(Cc1ccc(S(=O)(=O)O)cc1)C(=O)O (stereo unspecified)	> 100	> 100	> 100	> 100	> 100		> 100	> 100	> 100	> 100	> 100	> 100	> 100	> 100	> 100	> 100	> 100	> 100
